Test results reported in patent US20220031871A1, “ANTIBODIES FOR CHELATED RADIONUCLIDES AND CLEARING AGENTS” (Hoffmann-La Roche Inc., priority 2018, published 2022).
Where two headings read alike, the source gives them in different places.

What was measured:
[1] = Stability of metal-DOTAM in blood (spontaneous Ca-DOTAM formation); type: in vitro ADME, human
Excerpt: (§1) The initial choice for quenching was Cu, thus replacing unchelated DOTAM with quenched, non-competing Cu-DOTAM, and a large number of studies within the CEA-PRIT program were executed using this condition. However, it was later discovered that the Cu-DOTAM complex was, in fact, not stable in vivo, and a study was undertaken to assess its stability compared with alternative quenching ions in human and mouse serum, plasma, and blood.

[2] = as above; type: in vitro ADME, mouse
Excerpt: as §1

Row | SMILES | spontaneous Ca-DOTAM formation [1] | spontaneous Ca-DOTAM formation [2] | spontaneous Ca-DOTAM formation ([1]; human blood, 35 minutes p.i.) | spontaneous Ca-DOTAM formation ([2]; mouse blood, 35 minutes p.i.)
1 | NC(=O)CN1CCN(CC(N)=O)CCN(CC(N)=O)CCN(CC(N)=O)CC1.[Cu+2] [Cu-DOTAM] | ~30% | approximately 25% | – | –
2 | NC(=O)CN1CCN(CC(N)=O)CCN(CC(N)=O)CCN(CC(N)=O)CC1.[Pb+2] [Pb-DOTAM] | – | – | 4% | 4%
3 | NC(=O)CN1CCN(CC(N)=O)CCN(CC(N)=O)CCN(CC(N)=O)CC1.[Zn+2] [Zn-DOTAM] | 0% | 0% | – | –
